Measurements taken from the supplement of paper PMC10307832.

Tests used:
Test in all cases: relative viability (nuclei count vs DMSO), 5 days (fraction); higher = more cells survive
EMC-BAC-2 = system: EMC-BAC-2
Outline: (§1)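 Each reported value is a median over duplicate plates. It expresses relative viability: treated-well nuclei count divided by vehicle-well nuclei count. Lung cancer cell lines in 1536-well plates were dosed by pin tool a day after seeding, alone with one drug or with a fixed anchor-drug dose plus five library-drug doses (not always all listed) in √10 steps, and nuclei were counted after 5 days.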

NCI-H838 = system: NCI-H838
Outline: as §1

NCI-H2023 = system: NCI-H2023
Outline: as §1

201T = system: 201T
Outline: as §1

LCLC-103H = system: LCLC-103H
Outline: as §1

NCI-H2126 = system: NCI-H2126
Outline: as §1

LOU-NH91 = system: LOU-NH91
Outline: as §1

NCI-H1395 = system: NCI-H1395
Outline: as §1

NCI-H441 = system: NCI-H441
Outline: as §1

NCI-H2347 = system: NCI-H2347
Outline: as §1

NCI-H727 = system: NCI-H727
Outline: as §1

BEN = system: BEN
Outline: as §1

NCI-H23 = system: NCI-H23
Outline: as §1

NCI-H650 = system: NCI-H650
Outline: as §1

HCC-44 = system: HCC-44
Outline: as §1

NCI-H2087 = system: NCI-H2087
Outline: as §1

HARA = system: HARA
Outline: as §1

NCI-H1993 = system: NCI-H1993
Outline: as §1

NCI-H3122 = system: NCI-H3122
Outline: as §1

NCI-H596 = system: NCI-H596
Outline: as §1

NCI-H647 = system: NCI-H647
Outline: as §1

CC(=O)O[C@@]12CO[C@@H]1C[C@H](O)[C@@]1(C)C(=O)[C@H](O)C3=C(C)[C@@H](OC(=O)[C@H](O)[C@@H](NC(=O)OC(C)(C)C)c4ccccc4)C[C@@](O)([C@@H](OC(=O)c4ccccc4)[C@H]21)C3(C)C [Docetaxel] + Cc1nc(NC(=O)N2CCC[C@H]2C(N)=O)sc1-c1ccnc(C(C)(C)C(F)(F)F)c1 [Alpelisib] (partner 2 µM)
relative viability (EMC-BAC-2; first compound 0.0002 µM): 0.694
relative viability (EMC-BAC-2; first compound 0.000632 µM): 0.626
relative viability (EMC-BAC-2; first compound 0.002 µM): 0.385
relative viability (EMC-BAC-2; first compound 0.006325 µM): 0.246
relative viability (EMC-BAC-2; first compound 0.02 µM): 0.154
relative viability (NCI-H838; first compound 0.0002 µM): 0.978
relative viability (NCI-H838; first compound 0.000632 µM): 0.974
relative viability (NCI-H838; first compound 0.002 µM): 0.286
relative viability (NCI-H838; first compound 0.006325 µM): 0.194
relative viability (NCI-H838; first compound 0.02 µM): 0.157
relative viability (NCI-H2023; first compound 0.0002 µM): 0.49
relative viability (NCI-H2023; first compound 0.000632 µM): 0.553
relative viability (NCI-H2023; first compound 0.002 µM): 0.128
relative viability (NCI-H2023; first compound 0.006325 µM): 0.137
relative viability (NCI-H2023; first compound 0.02 µM): 0.0735
relative viability (201T; first compound 0.0002 µM): 1.01
relative viability (201T; first compound 0.000632 µM): 1.06
relative viability (201T; first compound 0.002 µM): 0.878
relative viability (201T; first compound 0.006325 µM): 0.555
relative viability (201T; first compound 0.02 µM): 0.366
relative viability (LCLC-103H; first compound 0.0002 µM): 0.966
relative viability (LCLC-103H; first compound 0.000632 µM): 0.984
relative viability (LCLC-103H; first compound 0.002 µM): 0.963
relative viability (LCLC-103H; first compound 0.006325 µM): 0.563
relative viability (LCLC-103H; first compound 0.02 µM): 0.452
relative viability (NCI-H2126; first compound 0.0002 µM): 0.781
relative viability (NCI-H2126; first compound 0.000632 µM): 0.753
relative viability (NCI-H2126; first compound 0.002 µM): 0.541
relative viability (NCI-H2126; first compound 0.006325 µM): 0.321
relative viability (NCI-H2126; first compound 0.02 µM): 0.231
relative viability (LOU-NH91; first compound 0.0002 µM): 0.73
relative viability (LOU-NH91; first compound 0.000632 µM): 0.737
relative viability (LOU-NH91; first compound 0.002 µM): 0.565
relative viability (LOU-NH91; first compound 0.006325 µM): 0.394
relative viability (LOU-NH91; first compound 0.02 µM): 0.368
relative viability (NCI-H1395; first compound 0.0002 µM): 1
relative viability (NCI-H1395; first compound 0.000632 µM): 1.02
relative viability (NCI-H1395; first compound 0.002 µM): 1.35
relative viability (NCI-H1395; first compound 0.006325 µM): 0.638
relative viability (NCI-H1395; first compound 0.02 µM): 0.307
relative viability (NCI-H441; first compound 0.0002 µM): 0.579
relative viability (NCI-H441; first compound 0.000632 µM): 0.677
relative viability (NCI-H441; first compound 0.002 µM): 0.323
relative viability (NCI-H441; first compound 0.006325 µM): 0.205
relative viability (NCI-H441; first compound 0.02 µM): 0.172
relative viability (NCI-H2347; first compound 0.0002 µM): 1.01
relative viability (NCI-H2347; first compound 0.000632 µM): 1.1
relative viability (NCI-H2347; first compound 0.002 µM): 0.666
relative viability (NCI-H2347; first compound 0.006325 µM): 0.525
relative viability (NCI-H2347; first compound 0.02 µM): 0.438
relative viability (NCI-H727; first compound 0.0002 µM): 0.583
relative viability (NCI-H727; first compound 0.000632 µM): 0.639
relative viability (NCI-H727; first compound 0.002 µM): 0.369
relative viability (NCI-H727; first compound 0.006325 µM): 0.298
relative viability (NCI-H727; first compound 0.02 µM): 0.23
relative viability (BEN; first compound 0.0002 µM): 0.875
relative viability (BEN; first compound 0.000632 µM): 0.897
relative viability (BEN; first compound 0.002 µM): 0.505
relative viability (BEN; first compound 0.006325 µM): 0.261
relative viability (BEN; first compound 0.02 µM): 0.19
relative viability (NCI-H23; first compound 0.0002 µM): 0.612
relative viability (NCI-H23; first compound 0.000632 µM): 0.512
relative viability (NCI-H23; first compound 0.002 µM): 0.406
relative viability (NCI-H23; first compound 0.006325 µM): 0.209
relative viability (NCI-H23; first compound 0.02 µM): 0.0958
relative viability (NCI-H650; first compound 0.0002 µM): 1.02
relative viability (NCI-H650; first compound 0.000632 µM): 0.518
relative viability (NCI-H650; first compound 0.002 µM): 0.315
relative viability (NCI-H650; first compound 0.006325 µM): 0.304
relative viability (NCI-H650; first compound 0.02 µM): 0.212
relative viability (HCC-44; first compound 0.0002 µM): 0.758
relative viability (HCC-44; first compound 0.000632 µM): 0.711
relative viability (HCC-44; first compound 0.002 µM): 0.609
relative viability (HCC-44; first compound 0.006325 µM): 0.149
relative viability (HCC-44; first compound 0.02 µM): 0.0751
relative viability (NCI-H2087; first compound 0.0002 µM): 0.916
relative viability (NCI-H2087; first compound 0.000632 µM): 0.753
relative viability (NCI-H2087; first compound 0.002 µM): 0.253
relative viability (NCI-H2087; first compound 0.006325 µM): 0.193
relative viability (NCI-H2087; first compound 0.02 µM): 0.15
relative viability (HARA; first compound 0.0002 µM): 0.778
relative viability (HARA; first compound 0.000632 µM): 0.525
relative viability (HARA; first compound 0.002 µM): 0.282
relative viability (HARA; first compound 0.006325 µM): 0.114
relative viability (HARA; first compound 0.02 µM): 0.0727
relative viability (NCI-H1993; first compound 0.0002 µM): 0.727
relative viability (NCI-H1993; first compound 0.000632 µM): 0.62
relative viability (NCI-H1993; first compound 0.002 µM): 0.741
relative viability (NCI-H1993; first compound 0.006325 µM): 0.525
relative viability (NCI-H1993; first compound 0.02 µM): 0.454
relative viability (NCI-H3122; first compound 0.0002 µM): 0.719
relative viability (NCI-H3122; first compound 0.000632 µM): 0.753
relative viability (NCI-H3122; first compound 0.002 µM): 0.764
relative viability (NCI-H3122; first compound 0.006325 µM): 0.318
relative viability (NCI-H3122; first compound 0.02 µM): 0.186
relative viability (NCI-H596; first compound 0.0002 µM): 0.616
relative viability (NCI-H596; first compound 0.000632 µM): 0.516
relative viability (NCI-H596; first compound 0.002 µM): 0.553
relative viability (NCI-H596; first compound 0.006325 µM): 0.457
relative viability (NCI-H596; first compound 0.02 µM): 0.336
relative viability (NCI-H647; first compound 0.0002 µM): 0.903
relative viability (NCI-H647; first compound 0.000632 µM): 0.347
relative viability (NCI-H647; first compound 0.002 µM): 0.189
relative viability (NCI-H647; first compound 0.006325 µM): 0.0725
relative viability (NCI-H647; first compound 0.02 µM): 0.0507
